From US20150051191A1, “TREATMENT OF ALCOHOLISM USING IBUDILAST” (MEDICINOVA, INC., priority 2013, published 2015)

Tests used:
[1] = tested on: high-alcohol-drinking (HAD1) rats; assay: voluntary ethanol consumption in high-alcohol-drinking (HAD1) rats; type: in vivo, rat
Method: (§1) The ability of ibudilast (MN-166) to decrease voluntary ethanol consumption, under blind testing conditions, in selectively-bred alcohol-preferring (P) and high-alcohol-drinking (HAD1) rats and in a mouse model of ethanol dependence was examined.
(§2) To perform the study, adult male P and HAD1 rats were randomly assigned to receive one of the following four doses of ibudilast—0 mg/Kg, 3 mg/Kg, 6 mg/Kg, or 9 mg/Kg with eight rats assigned to each dose. Each dosing group was balanced to average a 2 h/day ethanol (15% v/v) intake. Water was concurrently available to the rats and Mazola corn oil was used as the vehicle.
(§3) The study was divided into four test phases. In the maintenance test phase rats in the treatment group were injected ibudilast subcutaneously (2 mL/kg s.c.), using standard solutions that deliver 3 mg/Kg, 6 mg/Kg or 9 mg/Kg of ibudilast, 60 min before each ethanol test session and the same dose of ibudilast was administered subcutaneously to the rats 8 hours later. Rats in the control group, however, are administered 2 mL/Kg Mazola corn oil subcutaneously. This protocol was carried out for 4 consecutive days. Following the maintenance test phase, is a two week no drug recovery phase during which rats are permitted access to ethanol and the amount of ethanol consumed by the rats was measured.
(§4) The recovery phase is followed by a two week forced ethanol abstinence phase. Following forced abstinence, the effects of ibudilast on ethanol drinking were examined by re-introducing ethanol to rats for a period of 5 consecutive days (i.e., the Relapse Test phase). Each animal received the same dose of ibudilast during maintenance and relapse test phases.

[2] = tested on: alcohol-preferring (P) rats; assay: voluntary ethanol consumption in alcohol-preferring (P) rats; type: in vivo, rat; conditions: for ethanol drinking relative to controls: Relapse Test phase, p<0.05
Method: as §1, §2, §3, §4

C57BL/6J mice = assay: mouse model of ethanol dependence, chronic intermittent ethanol (CIE) exposure; type: in vivo; conditions: for ethanol intake of alcohol dependent mice compared with control group counterparts / reduction of ethanol intake, alcohol dependent versus control mice: Test Cycle 9; for ethanol consumption relative to vehicle: Test Cycle 8
Method: Briefly, mice were divided into test (ethanol dependent) and control (non-ethanol dependent) groups. Mice in the former group were exposed to chronic intermittent ethanol (CIE) vapor (16 hr/day×4 days), and then forced to abstain from alcohol for 72 hours. Mice were then permitted access to ethanol for 2 h/day for a 5-day test period. This pattern of weekly CIE exposures followed by 5-day test periods was repeated for 9 cycles. Mice in the control group were treated in the same manner, except these animals were exposed to air rather than ethanol vapors. Mice from both groups were further divided into four sub-groups with animals receiving 0 mg/Kg, 3 mg/Kg, 6 mg/Kg or 12 mg/Kg dose of ibudilast. In a separate study, adult male C57BL/6J mice were used to evaluate ibudilast as a therapeutic for the treatment of alcohol dependence. Two groups of mice were used for the study. Mice in the first group were trained to drink ethanol using a 2 h/day free-choice (15% v/v ethanol) drinking procedure (ethanol dependent (EtOH) mice), while mice in the second group were provided water and served a control (ethanol nondependent (CTL)) mice. Both the ethanol dependent and ethanol non-dependent groups had equal number of mice (N=37-38/group). Mice in the alcohol dependent group were then exposed to chronic intermittent ethanol (CIE) vapors for 16 hr/day over four days. After a 72 hours forced abstinence period, the ethanol dependent mice were again permitted access to ethanol for 2 hours each day over a 5 consecutive test days. This pattern of chronic intermittent ethanol vapor exposure for four consecutive days followed by forced abstinence and a five day ethanol access test period was repeated for 9 cycles. […] Both control and ethanol dependent mice received subcutaneous (s.c.) injections of the vehicle at 9 hours and 1 hour prior to the start of daily drinking sessions during Test Cycles 4, 5 and 6 to acclimate the animals to handling and administration of injections. At the end of test cycle 6, mice in the ethanol dependent group and the control group were separated into four sub-groups with animals receiving one of four doses of ibudilast—0 mg/Kg, 3 mg/Kg, 6 mg/Kg or 12 mg/Kg during Test Cycles 7 and 8. Each sub-group contained 9-10 mice (N=9-10/group). The dose of ibudilast was increased during Test Cycle 9 with ethanol dependent and control mice receiving one of the following four doses of ibudilast—0 mg/Kg, 6 mg/Kg, 12 mg/Kg, or 18 mg/Kg. Thus, mice previously receiving a dose of 3 mg were administered ibudilast at a dose of 18 mg/Kg during Test Cycle 9.

[3] = in vivo; cited from earlier work
[4] = 4-day maintenance test-phase, each dose (3, 6, 9 mg/Kg), p<=0.001
[5] = 5-day Relapse Test phase after two week forced abstinence
[6] = especially at the 9 mg/Kg dose, effect diminished over the 5-day test phase
[7] = maintenance test phase, 4 days, ibudilast s.c. 60 min before session and 8 hours later, 2 h/day ethanol 15% v/v
[8] = relapse test phase, data not shown

CC(C)C(=O)c1c(C(C)C)nn2ccccc12 [ibudilast, Ibudilast]
ethanol intake relative to vehicle-injected controls [1, 4]: reduced ethanol intake
reduction of ethanol intake [1, 5]: about 50%
ethanol intake compared to controls ([1]; Relapse Test phase, each test dose, p<0.05): reduce ethanol intake compared to controls
24-hour water intake ([1]; especially at the 9 mg/Kg dose): not water intake
24-hour food intake [1, 6]: transitory reductions in 24-hour food intake
reduction of ethanol intake [1, 7]: approximately 50%
Dose x Day interaction of reduced ethanol intake [1, 8]: most robust on the first day
ethanol intake relative to vehicle-injected controls [2, 4]: reduced ethanol intake
reduction of ethanol intake [2, 5]: about 50%
ethanol drinking relative to controls ([2]; 6 mg/Kg): significantly reducing ethanol drinking
ethanol drinking relative to controls ([2]; 9 mg/Kg): significantly reducing ethanol drinking
24-hour water intake ([2]; especially at the 9 mg/Kg dose): not water intake
24-hour food intake [2, 6]: transitory reductions in 24-hour food intake
reduction of ethanol intake [2, 7]: approximately 50%
Dose x Day interaction of reduced ethanol intake [2, 8]: most robust on the first day
ethanol intake of alcohol dependent mice compared with control group counterparts (C57BL/6J mice; 6 mg ibudilast, p<0.05): consumed significantly more ethanol
ethanol intake of alcohol dependent mice compared with control group counterparts (C57BL/6J mice; 12 mg/Kg): no significant difference in ethanol intake
reduction of ethanol intake, alcohol dependent versus control mice (C57BL/6J mice; 12 mg/Kg): more effective at reducing ethanol intake in alcohol dependent mice than control mice
ethanol intake of alcohol dependent mice compared with control group counterparts (C57BL/6J mice; 18 mg/Kg): no significant difference in ethanol intake
reduction of ethanol intake, alcohol dependent versus control mice (C57BL/6J mice; 18 mg/Kg): more effective at reducing ethanol intake in alcohol dependent mice than control mice
ethanol intake (C57BL/6J mice; alcohol dependent mice, 12 mg/Kg s.c., Test Cycle 7 (implied, FIG. 2)): reduced ethanol in alcohol dependent mice
ethanol consumption relative to vehicle (C57BL/6J mice; alcohol dependent mice, 12 mg/Kg, p<0.05): reduced ethanol consumption to a greater extent
ethanol intake of test (ethanol dependent) mice relative to control group levels (C57BL/6J mice; at the higher doses): below those for mice in the control group
ethanol consumption relative to vehicle (C57BL/6J mice; control (CTL) mice, 12 mg/Kg, p<0.05): reduced ethanol consumption to a greater extent

OCCOCCN1CCN(C2=Nc3ccccc3Sc3ccccc32)CC1 [quetiapine]
selective reduction of ethanol drinking [3]: do not selectively reduce ethanol drinking

CC[C@@H](C(N)=O)N1CCCC1=O [levatiracetam]
selective reduction of ethanol drinking [3]: do not selectively reduce ethanol drinking
